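Where inhibition never reached the appropriate level, the endpoint shown equals the highest concentration tested. Otherwise, values were interpolated linearly from a five-concentration, 48-hour dose response in 96-well plates. TGI is the concentration that stops growth completely.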
Assays:
Experiment in all cases: NCI-60 cell line screen, 48 h
[1] = test system: CCRF-CEM leukemia
[2] = test system: SN12C renal
[3] = test system: A549 NSCLC
[4] = test system: IGROV1 ovarian
[5] = test system: NCI-H460 lung
[6] = test system: ACHN renal
[7] = test system: MCF7 breast
[8] = test system: BT-549 breast
[9] = test system: SNB-19 CNS
[10] = test system: A498 renal
[11] = test system: SK-OV-3 ovarian
[12] = test system: SK-MEL-28 melanoma
[13] = test system: OVCAR-4 ovarian
[14] = test system: UACC-257 melanoma
[15] = test system: CAKI-1 renal
[16] = test system: K-562 leukemia
[17] = test system: NCI-H23 lung
[18] = test system: HCT-116 colon
[19] = test system: SK-MEL-5 melanoma
[20] = test system: HOP-62 NSCLC
[21] = test system: UO-31 renal
[22] = test system: M14 melanoma
[23] = test system: SR leukemia
[24] = test system: T-47D breast
[25] = test system: MALME-3M melanoma
[26] = test system: LOX IMVI melanoma
[27] = test system: MDA-N
[28] = test system: SF-295 CNS
[29] = test system: NCI-H522 lung
[30] = test system: OVCAR-3 ovarian
[31] = test system: PC-3 prostate
[32] = test system: OVCAR-5 ovarian
[33] = test system: DU-145 prostate
[34] = test system: MDA-MB-231 breast
[35] = test system: HCC-2998 colon
[36] = test system: 786-0 renal
[37] = test system: EKVX NSCLC
[38] = test system: SNB-75 CNS
[39] = test system: TK-10 renal
[40] = test system: SF-268 CNS
[41] = test system: HCT-15 colon
[42] = test system: SW-620 colon
[43] = test system: RPMI-8226 leukemia
[44] = test system: COLO 205 colon
[45] = test system: HT29 colon
[46] = test system: NCI-H226 lung
[47] = test system: HOP-92 NSCLC
[48] = test system: SK-MEL-2 melanoma
[49] = test system: KM12 colon
[50] = test system: MDA-MB-435
[51] = test system: OVCAR-8 ovarian
[52] = test system: NCI/ADR-RES ovarian
[53] = test system: MOLT-4 leukemia
[54] = test system: RXF 393 renal
[55] = test system: U251 CNS
[56] = test system: UACC-62 melanoma
[57] = test system: HL-60(TB) leukemia
[58] = test system: SF-539 CNS
[59] = test system: HS 578T breast

CC(C)(C)OC(=O)NCCCCCCC(=O)Cc1ccccc1
TGI [1]: > 100 µM | TGI [2]: > 100 µM | TGI [3]: > 100 µM | TGI [4]: > 100 µM | TGI [5]: > 100 µM | TGI [6]: > 100 µM | TGI [7]: > 100 µM | TGI [8]: > 100 µM | TGI [9]: > 100 µM | TGI [10]: > 100 µM | TGI [11]: > 100 µM | TGI [12]: > 100 µM | TGI [13]: > 100 µM | TGI [14]: > 100 µM | TGI [15]: > 100 µM | TGI [16]: > 100 µM | TGI [17]: > 100 µM | TGI [18]: > 100 µM | TGI [19]: > 100 µM | TGI [20]: > 100 µM | TGI [21]: > 100 µM | TGI [22]: > 100 µM | TGI [23]: > 100 µM | TGI [24]: > 100 µM | TGI [25]: > 100 µM | TGI [26]: > 100 µM | TGI [27]: > 100 µM | TGI [28]: > 100 µM | TGI [29]: > 100 µM | TGI [30]: > 100 µM | TGI [31]: > 100 µM | TGI [32]: > 100 µM | TGI [33]: > 100 µM | TGI [34]: > 100 µM | TGI [35]: > 100 µM | TGI [36]: > 100 µM | TGI [37]: > 100 µM | TGI [38]: > 100 µM | TGI [39]: > 100 µM | TGI [40]: > 100 µM | TGI [41]: > 100 µM | TGI [42]: > 100 µM | TGI [43]: > 100 µM | TGI [44]: > 100 µM | TGI [45]: > 100 µM | TGI [46]: > 100 µM | TGI [47]: > 100 µM | TGI [48]: > 100 µM | TGI [49]: > 100 µM | TGI [50]: > 100 µM | TGI [51]: > 100 µM | TGI [52]: > 100 µM | TGI [53]: > 100 µM | TGI [54]: > 100 µM | TGI [55]: > 100 µM

C=C=C(C)C(=O)N(C(C)C)C(C)C
TGI [1]: > 100 µM | TGI [2]: > 100 µM | TGI [3]: > 100 µM | TGI [4]: > 100 µM | TGI [5]: > 100 µM | TGI [6]: > 100 µM | TGI [7]: > 100 µM | TGI [8]: > 100 µM | TGI [9]: > 100 µM | TGI [10]: > 100 µM | TGI [11]: > 100 µM | TGI [12]: > 100 µM | TGI [13]: > 100 µM | TGI [14]: > 100 µM | TGI [16]: > 100 µM | TGI [17]: > 100 µM | TGI [18]: > 100 µM | TGI [19]: > 100 µM | TGI [20]: > 100 µM | TGI [21]: > 100 µM | TGI [22]: > 100 µM | TGI [23]: > 100 µM | TGI [24]: > 100 µM | TGI [25]: > 100 µM | TGI [26]: > 100 µM | TGI [27]: > 100 µM | TGI [56]: > 100 µM | TGI [28]: > 100 µM | TGI [57]: > 100 µM | TGI [30]: > 100 µM | TGI [31]: > 100 µM | TGI [32]: > 100 µM | TGI [33]: > 100 µM | TGI [34]: > 100 µM | TGI [35]: > 100 µM | TGI [36]: > 100 µM | TGI [37]: > 100 µM | TGI [38]: > 100 µM | TGI [39]: > 100 µM | TGI [40]: > 100 µM | TGI [41]: > 100 µM | TGI [42]: > 100 µM | TGI [43]: > 100 µM | TGI [44]: > 100 µM | TGI [45]: > 100 µM | TGI [46]: > 100 µM | TGI [47]: > 100 µM | TGI [50]: > 100 µM | TGI [51]: > 100 µM | TGI [52]: > 100 µM | TGI [53]: > 100 µM | TGI [55]: > 100 µM

CN(C)CCCNC(=O)N/N=C\c1cccc2ccccc12
TGI [1]: > 10 µM | TGI [2]: > 10 µM | TGI [3]: > 10 µM | TGI [58]: > 10 µM | TGI [4]: > 10 µM | TGI [5]: > 10 µM | TGI [6]: > 10 µM | TGI [7]: > 10 µM | TGI [10]: > 10 µM | TGI [11]: > 10 µM | TGI [12]: > 10 µM | TGI [13]: > 10 µM | TGI [16]: > 10 µM | TGI [18]: > 10 µM | TGI [19]: > 10 µM | TGI [20]: > 10 µM | TGI [21]: > 10 µM | TGI [22]: > 10 µM | TGI [23]: > 10 µM | TGI [24]: > 10 µM | TGI [25]: > 10 µM | TGI [26]: > 10 µM | TGI [27]: > 10 µM | TGI [56]: > 10 µM | TGI [28]: > 10 µM | TGI [57]: > 10 µM | TGI [29]: > 10 µM | TGI [31]: > 10 µM | TGI [32]: > 10 µM | TGI [33]: > 10 µM | TGI [34]: > 10 µM | TGI [35]: > 10 µM | TGI [37]: > 10 µM | TGI [38]: > 10 µM | TGI [39]: > 10 µM | TGI [40]: > 10 µM | TGI [41]: > 10 µM | TGI [42]: > 10 µM | TGI [43]: > 10 µM | TGI [44]: > 10 µM | TGI [45]: > 10 µM | TGI [47]: > 10 µM | TGI [49]: > 10 µM | TGI [51]: > 10 µM | TGI [52]: > 10 µM | TGI [59]: > 10 µM | TGI [53]: > 10 µM | TGI [54]: > 10 µM

Source: PubChem BioAssay (NCI)
